Measured values taken from patent US8471063B2, “Michael systems as transglutaminase inhibitors” (Zedira GmbH, priority 2006, dated 2013).
pIC50: −log10 of the molar value. *1 amine or outer side, *2 acyl side, *3 side chain or, on linkers, in order; H or OH if unused. Where a SMILES comes first, the peptide text is derived from it. [ ]: non-standard residue; d: D form. ξ: configuration not given here. X2 = COC(=O)/C=C/CC[C@H](N[*:1])C(=O)[*:2]; Ile(3ξ) = CCC(C)[C@H](N)C(=O)O

Tests used:
Format in all cases: biochemical
[1] = target: T1, FXIII (Homo sapiens, UniProt P00488); assay: Transglutaminase inhibition, IC50 at FXIII
T1 sequence (P00488 1-732): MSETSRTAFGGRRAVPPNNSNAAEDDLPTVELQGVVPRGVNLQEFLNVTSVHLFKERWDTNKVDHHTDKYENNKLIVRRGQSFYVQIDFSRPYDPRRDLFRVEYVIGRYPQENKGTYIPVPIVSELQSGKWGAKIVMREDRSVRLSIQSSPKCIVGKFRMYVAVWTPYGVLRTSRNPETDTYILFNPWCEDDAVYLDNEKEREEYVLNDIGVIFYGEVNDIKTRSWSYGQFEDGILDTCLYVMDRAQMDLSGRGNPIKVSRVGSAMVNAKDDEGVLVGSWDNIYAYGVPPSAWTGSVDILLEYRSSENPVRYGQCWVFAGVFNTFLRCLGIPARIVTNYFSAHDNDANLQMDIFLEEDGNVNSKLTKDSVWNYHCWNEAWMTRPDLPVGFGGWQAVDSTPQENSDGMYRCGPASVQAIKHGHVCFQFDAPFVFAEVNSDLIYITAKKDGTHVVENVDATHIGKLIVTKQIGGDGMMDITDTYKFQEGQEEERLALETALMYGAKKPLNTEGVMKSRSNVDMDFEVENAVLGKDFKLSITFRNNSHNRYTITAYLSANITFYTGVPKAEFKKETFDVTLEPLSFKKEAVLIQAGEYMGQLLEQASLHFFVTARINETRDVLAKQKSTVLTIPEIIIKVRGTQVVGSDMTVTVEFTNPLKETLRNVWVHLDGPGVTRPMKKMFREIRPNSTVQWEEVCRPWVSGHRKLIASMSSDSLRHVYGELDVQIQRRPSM

[2] = target: T2, TG1 (Homo sapiens, UniProt P22735); assay: Transglutaminase inhibition, IC50 at TG1
T2 sequence (P22735 1-817): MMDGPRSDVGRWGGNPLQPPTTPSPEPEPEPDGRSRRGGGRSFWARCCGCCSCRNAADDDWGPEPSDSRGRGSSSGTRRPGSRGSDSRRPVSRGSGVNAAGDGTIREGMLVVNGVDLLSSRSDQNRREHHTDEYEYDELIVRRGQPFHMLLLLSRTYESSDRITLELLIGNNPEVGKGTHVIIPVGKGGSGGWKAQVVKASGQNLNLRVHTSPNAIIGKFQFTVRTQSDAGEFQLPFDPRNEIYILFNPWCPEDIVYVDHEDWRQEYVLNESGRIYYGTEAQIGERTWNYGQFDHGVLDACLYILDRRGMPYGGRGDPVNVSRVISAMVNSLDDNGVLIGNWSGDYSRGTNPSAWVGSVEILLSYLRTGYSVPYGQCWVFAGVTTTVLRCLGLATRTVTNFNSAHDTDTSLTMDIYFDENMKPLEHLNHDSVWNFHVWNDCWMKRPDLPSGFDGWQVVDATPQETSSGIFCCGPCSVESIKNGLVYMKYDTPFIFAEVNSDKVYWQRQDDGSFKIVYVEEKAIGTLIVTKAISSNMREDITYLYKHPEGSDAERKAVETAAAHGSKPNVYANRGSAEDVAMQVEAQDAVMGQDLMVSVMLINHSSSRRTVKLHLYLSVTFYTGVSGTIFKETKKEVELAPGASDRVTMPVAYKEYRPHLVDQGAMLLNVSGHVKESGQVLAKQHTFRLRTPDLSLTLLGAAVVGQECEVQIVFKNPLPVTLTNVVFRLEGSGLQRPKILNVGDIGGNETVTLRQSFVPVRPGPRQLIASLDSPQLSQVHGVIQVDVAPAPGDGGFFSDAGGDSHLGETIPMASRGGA

[3] = target: T3, recombinant human tissue transglutaminase (His6-rh-TG2) (Homo sapiens, UniProt P21980); assay: Inactivation of human tissue transglutaminase, fluorescence assay, IC50; conditions: 5 min preincubation, 37° C.
T3 sequence (P21980 1-687): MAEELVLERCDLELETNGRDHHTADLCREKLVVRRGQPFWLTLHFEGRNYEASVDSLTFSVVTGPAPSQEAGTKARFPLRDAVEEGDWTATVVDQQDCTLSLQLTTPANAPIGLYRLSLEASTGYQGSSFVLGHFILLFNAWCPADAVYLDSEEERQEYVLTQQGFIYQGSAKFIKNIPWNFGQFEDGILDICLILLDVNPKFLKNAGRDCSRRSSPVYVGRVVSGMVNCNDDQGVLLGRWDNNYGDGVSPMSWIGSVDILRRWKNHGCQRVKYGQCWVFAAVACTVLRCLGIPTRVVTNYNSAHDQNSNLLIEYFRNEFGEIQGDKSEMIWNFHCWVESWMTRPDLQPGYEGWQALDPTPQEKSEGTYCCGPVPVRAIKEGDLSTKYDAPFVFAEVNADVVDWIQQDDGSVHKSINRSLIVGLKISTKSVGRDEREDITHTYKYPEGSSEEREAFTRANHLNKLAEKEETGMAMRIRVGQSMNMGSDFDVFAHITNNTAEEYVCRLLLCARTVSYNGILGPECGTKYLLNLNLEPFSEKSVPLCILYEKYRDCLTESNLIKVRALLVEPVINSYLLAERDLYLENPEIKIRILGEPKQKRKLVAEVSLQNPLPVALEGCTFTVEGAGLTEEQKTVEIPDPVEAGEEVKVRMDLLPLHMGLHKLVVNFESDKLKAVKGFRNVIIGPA
Procedure: 250 μg of lyophilized his-tagged recombinant human tissue transglutaminase (His6-rh-TG2) are reconstituted by the addition of 150 μl of water (resulting buffer 50 mM of NaH2PO4, 150 mM of NaCl, pH=8).
A 10 mM inhibitor stock solution in DMSO is prepared and diluted with buffer (50 mM of Tris-HCl, 10 mM of CaCl2, 5 mM of DTT, pH=7.5, respectively) to the 20-fold of the concentration desired for the inhibition mixture (at least 1/50 dilution resulting in 2% DMSO concentration).
900 μl of an assay solution composed of 55.56 mM of Tris, 11.11 mM of CaCl2, 0.11% PEG8000, 5.56 mM of DTT, 5.56 mM of glycine methyl ester and 50 μM of Abz-APE(CAD-DNP)QEA-OH, (patent number:), pH=7.5 are placed in a cuvette and brought to a temperature of 37° C. in the measuring cell of a spectrophotometer. 50 μl of the respective inhibitor solution are added to said solution (resulting in a concentration of less than 0.2% of DMSO in the mixture).
7 μl of the transglutaminase solution reconstituted above are diluted with 51 μl of buffer (50 mM of Tris, 100 mM of NaCl, 5 mM of DTT, pH=7.5). 50 μl of said enzyme solution (10 μg His6-rhTG2) are added to the assay solution containing the respective inhibitor concentration. The mixture is incubated for 5 min at 37° C. before the measurement is performed. λexc=313 nm and λem=418 nm, 15 min)
The resulting enzyme activity was measured by analyzing the slope of the straight line obtained by the increase in fluorescence.
DMSO is used instead of inhibitor stock solution in order to determine the non-inhibited enzyme activity. IC50 values are determined by plotting the resulting enzyme activity against the logarithm of the inhibitor concentration. IC50 is defined as the concentration of an inhibitor at which enzyme activity is reduced to 50% after 5 min of preincubation.

pIC50 ([1]; Table 2)	pIC50 ([2]; Table 2)	pIC50 ([3]; Table 2)	pIC50 ([1]; Table 1)	pIC50 ([2]; Table 1)	pIC50 ([3]; Table 1)	Compound
< 4.00	5.89	6.12				COC(=O)[C@H](CC(C)C)NC(=O)[C@@H]1CCCN1C(=O)[C@H](CCC(N)=O)NC(=O)[C@H](CC/C=C/S(=O)(=O)N(C)C)NC(=O)OCc1ccccc1 [Compound 3.2.2]
< 4.00	4.85	4.74				COC(=O)[C@H](CC(C)C)NC(=O)[C@@H]1CCCN1C(=O)[C@H](CCC(N)=O)NC(=O)[C@H](CCC1=CC(=O)CC1)NC(=O)OCc1ccccc1 [Compound 3.2.3, N^α-benzyloxycarbonyl-[(L)-2-amino-4-(3)-oxo-cyclopent-1-enyl]-butyryl-L-glutaminyl-L-prolinyl-L-leucine methyl ester]
< 4.00	6.40	5.05				COC(=O)[C@H](CC(C)C)NC(=O)[C@@H]1CCCN1C(=O)[C@H](CCC(N)=O)NC(=O)[C@H](CC/C=C1\CCOC1=O)NC(=O)OCc1ccccc1 [Compound 3.2.4, N^α-benzyloxycarbonyl[(L)-2-amino-5-(2-oxo-dihydrofurane-(3E)-ylidene)]-pentanoyl-L-glutaminyl-L-prolinyl-L-Ieucine methyl ester]
< 4.00	4.64	< 4.00				CCCCCNC(=O)/C=C/CC[C@H](NC(C)=O)C(=O)N[C@@H](CCC(N)=O)C(=O)N[C@@H](CC(=O)O)C(=O)N1CCC[C@H]1C(=O)OC [Compound 3.2.6, Nr-acetyl-{[(E)-(L)-6.amino-hept-2-ene-dicarboxylic acid]-1-pentylamido}-L-glutaminyl-L-asparatyl-L-proline methyl ester]
< 4.00	5.43	5.82				CC(C)OC(=O)C=CCCC(NC(=O)OCc1ccccc1)C(=O)NC(Cc1ccc(F)cc1)C(=O)N1CCCC1C(=O)O [Compound 3.2.7, N^α-benzyloxycarbonyl)-{[(E)-(L)-6-amino-hept-2-ene-dicarboxylic acid]-1-isopropanoyl}-L-(p-fluoro-phenylalaninyl)-L-proline]
< 4.00	6.08	6.89				CC(C)CC(NC(=O)C1CCCCN1C(=O)C(Cc1ccccc1)NC(=O)C(CCC=CC(=O)OCc1ccccc1)NC(=O)OCc1ccccc1)C(N)=O [Compound 3.2.8, N^α-benzyloxycarbonyl)-{[(E)-(L)-6-amino-hept-2-ene-dicarboxylic acid]-1-benzoyl}-L-phenylalaninyl-L-homoprolinyl-L-leucinyl amide]
< 4.00	6.28	5.42				CCOC(=O)C(=O)/C=C/CC[C@H](NC(=O)OCc1ccccc1)C(=O)N[C@@H](Cc1ccccc1)C(=O)OC [Compound 3.2.9]
			5.70	< 4.30	< 4.30	COC(=O)/C=C/CC[C@H](NC(=O)[C@H](CC(N)=O)NC(C)=O)C(=O)N[C@@H](CCC(=O)O)C(=O)N[C@@H](C)C(=O)N[C@H](C(=O)OC)C(C)C [Compound 7, N^α-acetyl-L-asparaginyl-{[(E)-(L)-6-amino-hept-2-ene-dicarboxylic acid]-1-methanoyl}-L-glutamyl-L-alaninyl-L-valine methyl ester] (Ac-N[X2]EAV-OMe)
			6.30	< 4.30	< 4.30	CCC(C)[C@H](NC(=O)[C@@H](NC(=O)[C@H](CC(C)C)NC(=O)[C@H](CO)NC(=O)[C@H](CC/C=C/C(=O)OC)NC(=O)CNC(=O)[C@@H]1CCCN1C(=O)CNC(=O)[C@H](CC(C)C)NC(C)=O)C(C)C)C(=O)NCC(=O)OC (stereo partly drawn) [Compound 8, N^α-acetyl-L-leucinyl-glycinyl-L-prolinyl-glycinyl-{[(E)-(L)-6-amino-hept-2-ene-dicarboxylic acid]-1-ethanoyl}-L-serinyl-L-leucinyl-L-valinyl-L-isoleucinyl-glycine methyl ester] (Ac-LGPG[X2]SLV[Ile(3ξ)]G-OMe)
